Laboratory results published in patent publication US11154515B2, “Pharmaceutical compositions comprising cannabidiol and beta-caryophyllene and methods for their use” (priority 2017, dated 2021).

Key:
IL-1β gene expression = IL-1β gene expression (RT-qPCR) in LPS-stimulated RAW 264.7 macrophages; assay type: cell-based, murine; conditions: for reduction of LPS-induced expression of IL-1β vs untreated, LPS-stimulated controls (FIG. 3B): CBD 0.1 μM, BCP 0.013 μM (p<0.01), combination 0.1 μM + 0.013 μM (7.7:1, p<0.001)
Description: RAW 264.7 cells were cultured in Dulbecco's Modified Eagle's Medium (high glucose DMEM, Sigma-Aldrich) supplemented with 10% fetal bovine serum (FBS), 1% L-glutamine, 1% Sodium-pyruvate, 1% Penicillin-Streptomycin (culture medium). The cells were maintained in T75 flasks at 37° C. in humidified air containing 5% CO2 in an incubator and passaged every second-third day.
For drug treatment and LPS stimulation, 200,000 cells/well were seeded in 1.5 mL culture medium in a 6-well plate and incubated to allow attachment to the cell culture plate. After attachment, cells were incubated with various concentrations of CBD (0.1 μM, 0.3 μM, 1 μM, 3 μM, 5 μM, 10 μM, and 30 μM) or BCP (0.001 μM, 0.01 μM, 0.013 μM, 0.1 μM, 0.3 μM, 1 μM, 3 μM, 5 μM, 10 μM, and 100 μM), or vehicle (control) for 2 hrs. After the 2 h incubation, 0.1 μg/mL LPS was added to each well to induce inflammation and cells were incubated with LPS for 24 hrs.
After the 24 h incubation with LPS, the cells were harvested and gene expression of the pro-inflammatory cytokines interleukin (IL)-1α, IL-1β were measured by quantitative real-time polymerase chain reaction (RT-qPCR) on a Roche Light Cycler 480 QPCR System (Roche Applied Sciences) using the 5′ nuclease assay. Total RNA was isolated using TRIzol (LifeTechnologies), DNase treatment was performed according to the manufacturer's protocol, and then 1 μg of total RNA was reverse-transcribed into cDNA using High Capacity cDNA Kit from Life Technologies Corporation. PCR amplification was performed using the TaqMan primers and probes (assay IDs: Mm00439620_m1 for murine Il1a; Mm00434228_m1 for murine Il1b, Mm00446190_m1 for murine 116, Mm00441263_m1 for murine Cxcl15/Il8). Expression of the housekeeping gene, Gapdh, was used (assay ID: […]) as an internal control. The amount of the transcripts was normalized to those of the housekeeping gene using the ΔCT method. Results are expressed as % decrease in the expression levels of IL1α and IL1β in drug-treated, LPS-stimulated groups compared to the expression of each cytokine gene in the vehicle-treated, LPS-stimulated group (regarded as 100%). All experiments were repeated 2-3 times.
For statistical analysis, data were analyzed and graphs were plotted using Origin Pro Plus 6.0 software (Microcal, Northampton, Mass., USA) and Student's two-tailed two samples t-test. p<0.05 values were regarded as significant differences.

[1] = tested on: male NMRI mice, carrageenan-induced paw edema; test: Carrageenan-induced paw edema, plethysmometry; assay type: in vivo, mouse; conditions: for basal paw volume vs vehicle-treated mice: single doses i.p. (CBD 0.5, 1, 10, 30 mg/kg; BCP 1, 5, 10, 30 mg/kg), 30 min after administration
Description: CBD and BCP solutions (≥80%, FCC, FG) were dissolved in a solution containing 10% Tween 80 and 90% saline (vehicle) and were freshly prepared immediately before use. Mice were treated with drug solutions or vehicle control by intraperitoneal (i.p.) injection at a volume of 0.1 mL/10 g body weight. Acute paw injury was induced by intraplantar injection of 20 μL 3% carrageenan (dissolved in 0.9% NaCl, Sigma Aldrich, St. Louis, Mo., USA) into the right hind paw.
Experiments were performed on 7-16-week-old male NMRI mice (30-50 g) provided with standard chow and water ad libitum. Mice were divided into groups and treated with a single dose of vehicle control (VEH), CBD, BCP, or CBD+BCP delivered i.p. 30 minutes after drug administration, measurements were taken to determine baseline values for mechanonociceptive thresholds and paw volumes. 35 minutes after drug administration, 20 μL of 3% carrageenan was injected intraplantarly (i.pl.) in the right hind paws. 3 hours after carrageenan administration, additional measurements were taken to determine the mechanonociceptive thresholds and paw volumes of the ipsilateral and contralateral paws.
Baseline and post-carrageenan injection paw volume was determined by plethysmometry (Ugo Basile Plethysmometer 7140, Comerio, Italy) and expressed in cubic centimeter (cm^3). Paw edema was presented as percentage increase of baseline values obtained prior to carrageenan administration (Bolcskei K. et al., Pain. 2005; 117:368-76).

[2] = Table 3A experiment, single agent 0.1 μM
[3] = Table 3A experiment, single agent 1 μM
[4] = Table 3A experiment, single agent 5 μM
[5] = Table 3A experiment, single agent 10 μM
[6] = Table 3B experiment, single agent 0.1 μM
[7] = Table 3B experiment, single agent 0.3 μM
[8] = Table 3B experiment, single agent 1.0 μM
[9] = Table 3B experiment, single agent 3.0 μM
[10] = Table 3B experiment, single agent 10 μM
[11] = Table 4 Exp. 1: CBD 0.1 μM, BCP 0.013 μM, CBD + BCP 0.1 μM + 0.013 μM
[12] = Table 4 Exp. 2: CBD 1 μM, BCP 0.13 μM, CBD + BCP 1 μM + 0.13 μM
[13] = most CBD and BCP single dose pre-treatments, three hours after i.pl. carrageenan

## C=C1CC/C=C(\C)CC[C@H]2[C@H]1CC2(C)C [BCP, (E)-beta-caryophyllene]
IL-1β gene expression; 0.001 μM BCP alone
  % Inhibition BCP Alone (IL-1β gene expression): 0%
IL-1β gene expression; 0.01 μM BCP alone
  % Inhibition BCP Alone (IL-1β gene expression): 0%
IL-1β gene expression; 0.1 μM BCP alone
  % Inhibition BCP Alone (IL-1β gene expression): 1.8 ± 0.2%
IL-1β gene expression; 0.3 μM BCP alone
  % Inhibition BCP Alone (IL-1β gene expression): 5.8 ± 1.2%
IL-1β gene expression; 1 μM BCP alone
  % Inhibition BCP Alone (IL-1β gene expression): 0%
IL-1β gene expression; 3 μM BCP alone
  % Inhibition BCP Alone (IL-1β gene expression): 0%
IL-1β gene expression; 10 μM BCP alone
  % Inhibition BCP Alone (IL-1β gene expression): 8.2 ± 4.1%
IL-1β gene expression; 100 μM BCP alone, * indicates possibly cytotoxicity
  % Inhibition BCP Alone (IL-1β gene expression): *94.2 ± 11.3%
IL-1β gene expression
  reduction of LPS-induced expression of IL-1β vs untreated, LPS-stimulated controls (FIG. 3B): did significantly reduce
IL-1β gene expression; [2]
  % decrease in IL1β expression: 11%
IL-1β gene expression; [3]
  % decrease in IL1β expression: 19%
IL-1β gene expression; [4]
  % decrease in IL1β expression: 62%
IL-1β gene expression; [5]
  % decrease in IL1β expression: 7%
IL-1β gene expression; Table 3B experiment, single agent 0.001 μM
  % decrease in IL1β expression: 0%
IL-1β gene expression; Table 3B experiment, single agent 0.01 μM
  % decrease in IL1β expression: 0%
IL-1β gene expression; [6]
  % decrease in IL1β expression: 1.8 ± 0.2%
IL-1β gene expression; [7]
  % decrease in IL1β expression: 5.8 ± 1.2%
IL-1β gene expression; [8]
  % decrease in IL1β expression: 0%
IL-1β gene expression; [9]
  % decrease in IL1β expression: 0%
IL-1β gene expression; [10]
  % decrease in IL1β expression: 8.2 ± 4.1%
IL-1β gene expression; Table 3B experiment, single agent 100 μM
  % decrease in IL1β expression: 94.2 ± 11.3%
IL-1β gene expression; [11]
  % decrease in IL-1β gene expression: 34%
IL-1β gene expression; [12]
  % decrease in IL-1β gene expression: 0%
[1]; 30 mg/kg i.p., three hours after carrageenan, vehicle 60%, p<0.0001
  carrageenan-induced paw edema: 20%
[1]; [13]
  carrageenan-induced increase of the paw volume: only mildly influenced
[1]
  basal paw volume vs vehicle-treated mice: none of the investigated single doses of CBD or BCP influenced the basal paw volume

## C=C(C)[C@@H]1CCC(C)=C[C@H]1c1c(O)cc(CCCCC)cc1O [CBD, cannabidiol]
IL-1β gene expression; 0.1 μM CBD alone
  % Inhibition CBD Alone (IL-1β gene expression): 5.8 ± 1.4%
IL-1β gene expression; 0.3 μM CBD alone
  % Inhibition CBD Alone (IL-1β gene expression): 9 ± 3.6%
IL-1β gene expression; 1 μM CBD alone
  % Inhibition CBD Alone (IL-1β gene expression): 39.2 ± 10.1%
IL-1β gene expression; 3 μM CBD alone
  % Inhibition CBD Alone (IL-1β gene expression): 85.6 ± 10%
IL-1β gene expression; 10 μM CBD alone
  % Inhibition CBD Alone (IL-1β gene expression): 92.2 ± 8.4%
IL-1β gene expression
  reduction of LPS-induced expression of IL-1β vs untreated, LPS-stimulated controls (FIG. 3B): did not significantly reduce
IL-1β gene expression; [2]
  % decrease in IL1β expression: 19%
IL-1β gene expression; [3]
  % decrease in IL1β expression: 11%
IL-1β gene expression; [4]
  % decrease in IL1β expression: 31%
IL-1β gene expression; [5]
  % decrease in IL1β expression: 33%
IL-1β gene expression; [6]
  % decrease in IL1β expression: 5.8 ± 1.4%
IL-1β gene expression; [7]
  % decrease in IL1β expression: 9 ± 3.6%
IL-1β gene expression; [8]
  % decrease in IL1β expression: 39.2 ± 10.1%
IL-1β gene expression; [9]
  % decrease in IL1β expression: 85.6 ± 10%
IL-1β gene expression; [10]
  % decrease in IL1β expression: 92.2 ± 8.4%
IL-1β gene expression; [11]
  % decrease in IL-1β gene expression: 13%
IL-1β gene expression; [12]
  % decrease in IL-1β gene expression: 55%
[1]; 0.5 mg/kg CBD alone, 3 hours after carrageenan
  carrageenan-induced increase of the paw volume: not influenced
[1]; 1 mg/kg CBD alone, 3 hours after carrageenan
  carrageenan-induced increase of the paw volume: not influenced
[1]; [13]
  carrageenan-induced increase of the paw volume: only mildly influenced
[1]
  basal paw volume vs vehicle-treated mice: none of the investigated single doses of CBD or BCP influenced the basal paw volume
